Biological target: T1, Ring1A (Homo sapiens, UniProt Q06587)
T1 construct: gene RING1; recombinant GST fusion of Ring1A (N-terminal HA tag, C-terminal six-histidine tag) in complex with GST-Bmi1, from E. coli; with Bmi1
T1 sequence (Q06587 1-406): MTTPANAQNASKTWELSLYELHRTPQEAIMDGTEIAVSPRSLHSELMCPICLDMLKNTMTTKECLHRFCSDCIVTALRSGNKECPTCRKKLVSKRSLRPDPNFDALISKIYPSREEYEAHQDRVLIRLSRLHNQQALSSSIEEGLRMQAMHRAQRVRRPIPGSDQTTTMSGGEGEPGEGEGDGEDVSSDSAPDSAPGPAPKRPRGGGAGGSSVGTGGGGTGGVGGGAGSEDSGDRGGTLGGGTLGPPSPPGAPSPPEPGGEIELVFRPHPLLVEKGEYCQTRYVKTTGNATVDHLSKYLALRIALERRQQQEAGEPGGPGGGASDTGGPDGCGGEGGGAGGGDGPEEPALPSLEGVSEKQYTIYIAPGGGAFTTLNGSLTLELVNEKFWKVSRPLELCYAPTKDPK
T1 sequence (P35226 1-326 partner): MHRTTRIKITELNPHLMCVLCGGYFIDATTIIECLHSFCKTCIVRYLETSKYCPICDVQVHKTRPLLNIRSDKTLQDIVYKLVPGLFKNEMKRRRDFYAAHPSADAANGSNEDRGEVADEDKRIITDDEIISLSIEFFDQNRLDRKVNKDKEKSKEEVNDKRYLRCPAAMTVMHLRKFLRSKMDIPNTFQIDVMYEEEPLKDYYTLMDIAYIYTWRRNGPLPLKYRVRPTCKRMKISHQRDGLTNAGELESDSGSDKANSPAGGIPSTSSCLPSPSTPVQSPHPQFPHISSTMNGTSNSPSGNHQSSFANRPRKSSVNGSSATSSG
Experiment: cell-free HTRF ubiquitination assay (E1, UbcH5a, Flag-ubiquitin), confirmed by gel-based Western blot
Type: biochemical

- IC50: 3.9 µM
Compound: O=C1C(=Cc2cccnc2)C(=O)c2ccccc21 [PRT4165]

— paper PMC2779455, “The E3 Ubiquitin-Ligase Bmi1/Ring1A Controls the Proteasomal Degradation of Top2α Cleavage Complex – A Potentially New Drug Target” (PLoS ONE, 2009)
